Several values for one entry are separate records, joined by “and”; a condition that tells them apart may be missing. Equal entries are not always repeated.
Experiments:
[1] = system: S. aureus; assay: Phototoxic effect of coated surface in office lighting (Example 4); format: cell-based, Staphylococcus aureus; details: 2-C paint from Example 2.1, storage 24 h, illumination period 12 h
Method: In a subsequent test, the 2-C paint system was irradiated with room lighting. In this regard, the photoactive surfaces produced in Example 2.1 with the photosensitizers SAPN-19c and SAPN-19 were additionally stored exposed in areas with normal office lighting (standard fluorescent lights, Osram Cool White, 840) and the phototoxic action on S. aureus with the same pathogen counts as in Example 3 was analysed after specific periods. In this regard, the photoactive layers were distanced from the light source by approximately 40 cm. It was shown that for the photosensitizer SAPN-19c, after storage for 24 h under standard office lighting conditions with an illumination period of 12 h, that ail pathogens on the surface had been completely eradicated (approximately 5.5 log10 units, corresponding to >99.999% reduction).

[2] = system: Staphylococcus aureus ATCC 25923; assay: Photodynamic inactivation of S. aureus on coated sample supports, LED 405 nm (Example 3); format: cell-based
Method: The photosensitizer was dissolved in the respective paint system and applied to various square sample supports (width: 4 cm, length: 4 cm, thickness: 3 mm) formed from PVC or PMMA and then dried. After drying the coating, a specific quantity of bacteria from the species Staphylococcus aureus ATCC 25923 was applied to the surface.
In this regard, firstly, an overnight (ON) culture of S. aureus in 5 mL of Mueller Hinton broth (Carl Roth GmbH+Co. KG, Karlsruhe, DE) was inoculated with a single colony from an agar plate and incubated at 37° C. and 180 rpm on a shaker for 18-20 hours.
On the day of the test, in each case 1 mL of ON culture was centrifuged (Hettich Universal 320 R centrifuge (Andreas Hettich GmbH & Co. KG, Tuttlingen, DE); swing-out rotor 1494; 10 Min, 3000 rpm, RT). The supernatant was discarded and the pellet was re-suspended in 1 mL of Milli-Q water, which is commercially available from Merck (KGaA, Darmstadt, DE) (designation “Milli-Q Integral Ultra-pure Water (Type 1)”).
After determining the optical density at 600 nm (“Specord 50 plus”, spectrometer, Analytik Jena), the re-suspended bacteria were diluted with Milli-Q-water to a cell count of 10^5 bacteria/mL. From the dilution, in each case 100 μL was dripped onto the sample support using a pipette (droplet size approximately 1 cm^2).
The sample support was then dried in air under a clean bench in the dark for approximately 2 hours, until water could no longer be seen on the surface.
The respective sample supports were irradiated with monochrome light at a wavelength of 405 nm with the aid of a LED module (test area 5×5 cm homogeneously illuminated; high power LEDs) or with room lighting (Osram Lumilux Cool White, colour temperature 4000 K) at the intensities and for the irradiation periods given below. Directly after irradiation, the bacteria were wiped from the surface of the respective sample support with a sterile cloth and re-suspended in 1 mL of Mueller-Hinton broth.
Next, the sample was serially diluted (1:10 dilution stages: 180+20 μL; to dilution stage 10^5).
For each dilution stage (100 to 10^−5), 3× respectively 20 μL of broth was dripped onto a Mueller-Hinton agar plate (Carl Roth GmbH+Co. KG) using a pipette, and spread. The agar plates were then incubated at 37° C. ON.
On the following day, the colonies from all of the dilution stages which could be counted of an experiment were counted and the CFU/mL was calculated.
Next, from the value for the CFU/mL, the log10 eradication rate was calculated. The reference point in each experiment was the reference control (=100% count of bacteria employed).
A test was composed of the following: • coated sample support: without photosensitizer, not irradiated (“reference control”) • coated sample support: with photosensitizer, not irradiated (“dark control”) • coated sample support: without photosensitizer and irradiated (“light control”) • coated sample support: with photosensitizer and irradiated (“sample”)
• Coated material: PMMA, 3 mm thickness, 4×4 cm • Drying time approximately 1 hour • Drying temperature 15-30° C. • Application with a spray gun • Concentration of photosensitizer used: […] (61.55 mg/L) Irradiation Conditions:
• Coated material: PVC, 3 mm thickness, 4×4 cm • Drying time approximately 2 hours • Drying temperature 15-30° C. • Relative humidity for the drying time 30-70% • Application with a spray gun • Concentration of photosensitizer used: […] (61.55 mg/L) Irradiation Conditions: […]

[3] = system: S. aureus; assay: Long-term test of photoactive stability after pre-irradiation (Example 5); format: cell-based, Staphylococcus aureus
Method: In order to test the stability of the lacks produced, a long term test was carried out.
The test surfaces were pre-irradiated for different time periods (5, 25, 50, 75 h) at an output of 5 mW cm^−2 in order to establish whether the respective photosensitizer in PUR was affected in a manner such that the phototoxic activity of the surface was reduced:
Following the pre-irradiation, the surfaces as described above were contaminated with S. aureus then irradiated for 2 h (corresponds to 5 mW cm^−2) and the phototoxic efficiency was measured.

Structure (SMILES) | eradication of pathogens on the surface ([1]; standard office lighting (Osram Cool White, 840), approx. 40 cm) | reduction of pathogens on the surface ([1]; standard office lighting) [%] | mean eradication of S. aureus ([2]; 1-C polyurethane paint, water-based, on PVC, LED 405 nm, 10 mW/cm^2, 10 minutes (6 J/cm^2), three independent tests) | eradication of S. aureus ([2]; 2-C polyurethane paint on PMMA, LED 405 nm, 0.7 mW/cm^2, after 20 minutes, two independent tests) [log10 units] | log10 reduction of S. aureus ([2]; 2-C polyurethane paint on PMMA, photosensitizer 200 μm (61.55 mg/L), LED 405 nm, 10 mW/cm^2, 2 minutes (1.2 J/cm^2), mean of 3 independent experiments) [log10] | extermination of S. aureus ([2]; 2-C polyurethane paint on PMMA, photosensitizer 200 μm (61.55 mg/L), LED 405 nm, 20 mW/cm^2, 2 minutes (2.4 J/cm^2)) [log10 units] | reduction of the bacteria involved ([2]; coating at 6 J/cm^2, equivalent of 3 log10 units) [%] | phototoxic efficiency after pre-irradiation ([3]; PUR surface pre-irradiated 5, 25, 50, 75 h at 5 mW cm^−2, then contaminated with S. aureus and irradiated 2 h) | state of the test surfaces after one month ([3]; porphyrin-doped surfaces, after one month)
CC(C)(O)c1cc[n+](CC2=Cc3cccc4cccc(c34)C2=O)cc1 [SAPN-19c] | approximately 5.5 log10 units | > 99.999 | 3.0 log10 units and 3 log10 units | 1.9 | 1.8 | 2.7 | 99.9 |  | 
OCCOCCOc1ccc(-c2c3nc(c(-c4ccccc4)c4ccc([nH]4)c(-c4ccccc4)c4nc(c(-c5ccccc5)c5ccc2[nH]5)C=C4)C=C3)cc1 [TPP sensitizer WBII/2] |  |  |  |  |  |  |  | noticeable reduction in the phototoxic efficiency | discoloured significantly and they lost phototoxic activity

Source: patent US11987557B2, “Phenalene-1-one-containing photosensitizer composition, phenalene-1-one compound and the use thereof” ([…], priority 2017, dated 2024)
